The values that follow come from publication PMC3919815, “Anti-Tumor Effects of Novel 5-O-Acyl Plumbagins Based on the Inhibition of Mammalian DNA Replicative Polymerase Activity” (PLoS ONE, 2014).

Where “and” joins values, the source holds several entries; their conditions need not be identical. Equal values may be shown once.

For one test, the target named is T1, Rice pol λ (Oryza sativa subsp. japonica, UniProt Q67VC8).
T1 construct: His6 (C); made in house; host or cells: E. coli
The test can be described thus: DNA polymerase activity inhibition. It is filed as biochemical, rice (Oryza sativa L. cv. Nipponbare). An excerpt: Pol α was purified from calf thymus by immunoaffinity column chromatography as described by Tamai et al.. Recombinant rat pol β was purified from Escherichia coli JMpβ5 as described by Date et al.. The human pol γ catalytic gene was cloned into pFastBac. Histidine-tagged enzyme was expressed using the BACTO-BAC HT Baculovirus Expression System according to the manufacturer's instructions (Life Technologies, Frederick, MD, USA) and purified using ProBound resin (Invitrogen Japan, Tokyo Japan). Human pols δ and ε were purified by nuclear fractionation of human peripheral blood cancer cells (Molt-4) using the second subunit of pol δ and ε-conjugated affinity column chromatography, respectively. A truncated form of human pol η (residues 1–511) tagged with His6 at its C-terminal was expressed in E. coli cells and purified as described by Kusumoto et al.. A recombinant mouse pol ι tagged with His6 at its C-terminal was expressed and purified by Ni–NTA column chromatography. […]
The chemically synthesized 5-O-acyl plumbagins (2a–j) were dissolved in distilled dimethyl sulfoxide (DMSO) to various concentrations and sonicated for 30 s. […] Activity without inhibitor was considered 100%, and the relative activity was determined for each inhibitor concentration. […]

A further test deals with T2, T4 pol (Enterobacteria phage T4, UniProt P04415).
T2 construct: purchased Takara Bio Inc. (Kyoto, Japan)
Kind of test: DNA polymerase activity inhibition. It is filed as biochemical.

The target of a further test is T3, Taq pol (Thermus aquaticus, UniProt P19821).
T3 construct: purchased Takara Bio Inc. (Kyoto, Japan)
The test can be described thus: DNA polymerase activity inhibition. It is filed as biochemical.

The test system of test [1] is HT-29 cells (colon cancer). The test can be described thus: Cancer cell viability, MTT assay. It is filed as cell-based, human. Particulars: 48 h, mean ± SD (n = 5). The method, then: (§1) The following human cancer cell lines were obtained from the American Type Culture Collection (Manassas, VA, USA): lung (A549), prostate (DU145 and PC3), colon (HCT116 and HT-29), cervix (HeLa), hepatocellular liver (HepG2), breast (MCF-7), and pancreatic cancer (PANC-1). These cells were cultured in RPMI 1640 medium supplemented with 10% fetal bovine serum, penicillin (100 units/mL), streptomycin (100 µg/mL), and 1.6 mg/mL NaHCO3 at 37°C in a humid atmosphere of 5% CO2/95% air. For the cell viability assay, cells were seeded at 1×10^3 cells/well in a 96-well microplate with various concentrations of the test compounds, and incubated for 48 h. MTT (3-(4,5-dimethylthiazol-2-yl)-2,5-diphenyl tetrazolium bromide) solution was added to a final concentration 0.6 mg/mL in Milli-Q purified water for 2 h, after which time the medium was discarded and the cells lysed in DMSO. A540 was then measured in a microplate reader (Model 680, Bio-Rad Laboratories, Hercules, CA, USA).

The test system of a further test is A549 (lung cancer). Kind of test: Cancer cell viability, MTT assay. Particulars: 48 h, mean ± SD (n = 5). It counts as cell-based, human. As to the method: as §1
A further test concerns MCF-7 (breast cancer). The test can be described thus: Cancer cell viability, MTT assay. It counts as cell-based, human. To be noted: 48 h, mean ± SD (n = 5). As to the method:
as §1

For test [2], the system named is PANC-1 (pancreatic cancer). The test can be described thus: Cancer cell viability, MTT assay. It is filed as cell-based, human. To be noted: 48 h, mean ± SD (n = 5). As to the method: as §1
The next test relates to PC3 (prostate cancer). Kind of test: Cancer cell viability, MTT assay. It is filed as cell-based, human. To be noted: 48 h, mean ± SD (n = 5). The method, then:
as §1

Another test deals with HCT116 (colon cancer). Kind of test: Cancer cell viability, MTT assay. It counts as cell-based, human. Particulars: 48 h. The method, then: as §1
Another test concerns HeLa (cervical cancer). Kind of test: Cancer cell viability, MTT assay. It counts as cell-based, human. Particulars: 48 h, mean ± SD (n = 5). The method, then: as §1
The subject of test [3] is HepG2 (hepatocellular liver cancer). Kind of test: Cancer cell viability, MTT assay. It counts as cell-based, human. To be noted: 48 h, mean ± SD (n = 5). The method, then: as §1
For a further test, the system named is DU145 (prostate cancer). Kind of test: Cancer cell viability, MTT assay. It counts as cell-based, human. Particulars: 48 h, mean ± SD (n = 5). As to the method: as §1

T1 sequence (Q67VC8 whole entry): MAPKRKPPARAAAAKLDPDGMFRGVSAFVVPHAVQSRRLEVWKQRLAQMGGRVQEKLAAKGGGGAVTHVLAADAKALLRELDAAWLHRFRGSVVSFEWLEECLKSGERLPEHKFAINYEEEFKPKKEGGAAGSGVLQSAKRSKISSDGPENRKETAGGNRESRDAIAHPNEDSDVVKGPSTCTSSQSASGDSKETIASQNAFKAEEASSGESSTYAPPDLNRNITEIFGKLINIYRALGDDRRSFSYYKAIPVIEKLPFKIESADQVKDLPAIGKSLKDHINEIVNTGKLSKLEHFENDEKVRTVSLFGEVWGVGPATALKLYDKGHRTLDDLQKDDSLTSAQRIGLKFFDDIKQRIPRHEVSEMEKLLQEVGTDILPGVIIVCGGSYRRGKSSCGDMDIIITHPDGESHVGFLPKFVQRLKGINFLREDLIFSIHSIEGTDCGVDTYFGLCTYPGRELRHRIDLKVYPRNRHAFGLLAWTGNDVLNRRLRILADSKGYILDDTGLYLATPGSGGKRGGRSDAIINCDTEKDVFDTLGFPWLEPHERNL
T3 sequence (P19821 whole entry): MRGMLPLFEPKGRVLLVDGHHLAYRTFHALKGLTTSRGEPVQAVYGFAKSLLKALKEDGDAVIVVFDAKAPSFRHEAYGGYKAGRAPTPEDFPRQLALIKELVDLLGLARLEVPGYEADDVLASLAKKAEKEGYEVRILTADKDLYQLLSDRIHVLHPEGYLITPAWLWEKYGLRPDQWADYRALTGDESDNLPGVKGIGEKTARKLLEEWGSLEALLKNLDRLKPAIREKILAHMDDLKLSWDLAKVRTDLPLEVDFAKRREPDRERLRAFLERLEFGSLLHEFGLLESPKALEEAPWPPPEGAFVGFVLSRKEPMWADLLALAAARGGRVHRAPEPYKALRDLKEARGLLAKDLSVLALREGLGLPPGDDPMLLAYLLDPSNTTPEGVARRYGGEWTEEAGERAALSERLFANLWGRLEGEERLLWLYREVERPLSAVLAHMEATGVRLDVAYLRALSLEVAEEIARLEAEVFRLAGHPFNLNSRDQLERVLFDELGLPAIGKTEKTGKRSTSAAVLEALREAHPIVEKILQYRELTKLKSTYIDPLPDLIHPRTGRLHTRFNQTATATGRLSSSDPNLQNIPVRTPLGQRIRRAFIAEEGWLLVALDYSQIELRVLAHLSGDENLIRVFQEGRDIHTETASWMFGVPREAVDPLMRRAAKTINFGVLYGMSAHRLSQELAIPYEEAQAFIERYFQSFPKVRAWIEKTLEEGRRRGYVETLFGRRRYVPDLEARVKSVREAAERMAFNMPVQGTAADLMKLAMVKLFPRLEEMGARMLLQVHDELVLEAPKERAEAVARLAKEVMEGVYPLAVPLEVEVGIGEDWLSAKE
T2 sequence (P04415 whole entry): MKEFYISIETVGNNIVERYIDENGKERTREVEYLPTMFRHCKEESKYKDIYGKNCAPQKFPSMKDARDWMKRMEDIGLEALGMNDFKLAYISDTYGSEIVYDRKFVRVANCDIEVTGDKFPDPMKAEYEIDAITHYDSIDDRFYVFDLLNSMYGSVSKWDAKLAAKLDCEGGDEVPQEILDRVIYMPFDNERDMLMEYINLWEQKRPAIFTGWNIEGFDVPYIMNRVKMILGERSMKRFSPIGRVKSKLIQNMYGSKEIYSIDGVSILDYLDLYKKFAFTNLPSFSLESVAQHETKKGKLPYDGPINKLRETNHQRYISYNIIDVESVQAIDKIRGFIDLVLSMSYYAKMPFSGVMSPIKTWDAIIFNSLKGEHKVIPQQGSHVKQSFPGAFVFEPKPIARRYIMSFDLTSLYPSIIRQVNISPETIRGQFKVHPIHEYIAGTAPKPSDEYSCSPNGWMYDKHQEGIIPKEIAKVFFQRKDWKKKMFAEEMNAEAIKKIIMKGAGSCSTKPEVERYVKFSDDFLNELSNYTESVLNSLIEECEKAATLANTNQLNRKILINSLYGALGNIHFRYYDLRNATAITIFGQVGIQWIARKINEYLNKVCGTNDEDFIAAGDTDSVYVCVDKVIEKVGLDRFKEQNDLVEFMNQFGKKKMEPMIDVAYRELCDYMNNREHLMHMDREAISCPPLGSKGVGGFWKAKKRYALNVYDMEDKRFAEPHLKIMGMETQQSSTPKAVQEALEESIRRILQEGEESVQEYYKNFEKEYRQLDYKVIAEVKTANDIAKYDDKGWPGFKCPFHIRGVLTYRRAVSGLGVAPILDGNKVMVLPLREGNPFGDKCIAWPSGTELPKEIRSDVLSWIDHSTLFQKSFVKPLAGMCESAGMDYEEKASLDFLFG

Take `CCCCCCCC/C=C\CCCCCCCC(=O)Oc1cccc2c1C(=O)C=C(C)C2=O` [2f, 5-O-oleoyl-2-methyl-1,4-naphthoquinone]: the “effect on enzyme activity (in words)” value on Rice pol λ, at T4 pol and at Taq pol was “had no effect” in each case. The IC50 was more than 100 µM against Rice pol λ (0.05 units enzyme); more than 100 µM on T4 pol (0.05 units enzyme); more than 100 µM against Taq pol (0.05 units enzyme, 74°C). Moreover, the LD50 values in test [1] came to 2.9 ± 0.4 µM; in test [1] (listed as C18:1-acyl plumbagin), 2.9 µM; with A549 (lung cancer), 15.4 ± 1.7 µM; with MCF-7 (breast cancer), 7.2 ± 0.7 µM; in test [2], 16.1 ± 1.8 µM; in the test on PC3 (prostate cancer) it was 10.0 ± 1.1 µM. The LD50 values in the test on HCT116 (colon cancer) (MTT assay, mean ± SD (n = 5)) is 6.5 µM and 6.5 ± 0.6 µM; in the test with HeLa (cervical cancer) it was 21.0 ± 2.5 µM; in test [3], 7.4 ± 0.8 µM; in the test on DU145 (prostate cancer), 8.8 ± 0.9 µM. Also, in the test on HCT116 (colon cancer) (10 µM, MTT, control = 100%), the cell proliferation rate entry is given as “less than 40%”. Further, the “cell proliferation inhibitory effect compared among the compounds (in words)” value in the test on HCT116 (colon cancer) (10 and 100 µM, MTT, Fig. 5) is on record as “strongest effects on cancer cell proliferation suppression”.
